From PubChem BioAssay AID1417 (Emory University Molecular Libraries Screening Center, 2008) come the findings set out here.

For this assay, the target named is Induced myeloid leukemia cell differentiation protein Mcl-1 (Homo sapiens) (UniProt Q07820). The assay is described as follows: Mcl-1 Noxa peptide disruption concentration-response – biochemical, TR-FRET, dose response (AID 1417). The settings on record: Mcl-1/Noxa peptide interaction, cell-free TR-FRET (terbium/rhodamine), 2 h; measured here: absolute IC50.
Chain of Induced myeloid leukemia cell differentiation protein Mcl-1 (Homo sapiens) (Q07820 whole entry, looked up): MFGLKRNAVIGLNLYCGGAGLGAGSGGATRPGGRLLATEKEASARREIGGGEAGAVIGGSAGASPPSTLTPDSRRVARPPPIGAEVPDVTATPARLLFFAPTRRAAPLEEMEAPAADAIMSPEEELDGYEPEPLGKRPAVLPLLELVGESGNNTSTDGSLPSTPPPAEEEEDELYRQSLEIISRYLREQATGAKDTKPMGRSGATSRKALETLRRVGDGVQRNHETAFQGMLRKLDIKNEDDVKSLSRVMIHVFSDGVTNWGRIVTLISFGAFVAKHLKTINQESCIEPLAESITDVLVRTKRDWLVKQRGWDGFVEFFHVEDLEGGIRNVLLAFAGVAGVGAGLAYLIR
Usually IC50 stands for the concentration that gives 50% inhibition. In the case of `CN1CCN(CCCN2c3ccccc3Sc3ccc(Cl)cc32)CC1`, the 50% inhibitory concentration (IC50) was 4.06 µM.

As to `CN1CCC(N(C)c2nc(-c3ccc([N+](=O)[O-])cc3)nc3ccccc23)CC1`, the IC50 is less than 0.4 µM.

With `O=C1/C(=C\c2ccccn2)SC(=S)N1c1ccc(S(=O)(=O)Nc2nccs2)cc1`, the IC50 turned out to be 2.69 µM.

The compound `O=[N+]([O-])c1cc(Cl)cc(/C=N/NC(=S)Nc2cc(S(=O)(=O)N3CCOCC3)ccc2Cl)c1O` displayed an IC50 of less than 0.4 µM.

With `COc1ccc(Nc2cc(C)c3c(O)cccc3n2)cc1`, the IC50 was 7.12 µM.

Regarding `NC(=S)n1[nH]c(-c2ccc([N+](=O)[O-])cc2)c(N=Nc2cccc(Cl)c2)c1=O`, the IC50 came out at 1.48 µM.

`CCC(C)(C)n1nnnc1C(c1ccc(O)c(OC)c1)N1CCc2ccccc2C1` (stereo not drawn) displayed an IC50 of less than 0.4 µM.

The compound `O=C1NC(=O)/C(=C\c2ccc(O)cc2O)S1` returned an IC50 of less than 0.4 µM.

`COc1ccc(/C=N/NC(=O)c2cc(O)c(O)c(O)c2)cc1Cn1cc([N+](=O)[O-])cn1` displayed an IC50 of less than 0.4 µM.

`CN1CCc2cccc3c2[C@@H]1Cc1ccc(O)c(O)c1-3` returned an IC50 of 0.827 µM.

With `N#CC(C#N)=NNc1ccc(S(N)(=O)=O)cc1`, the concentration for half-maximal inhibition (IC50) amounted to 1.91 µM.

`O=C(N/N=C\C=C\c1ccco1)c1cc(-c2ccc3ccccc3c2)n[nH]1` returned a half-maximal inhibitory concentration (IC50) of 2.11 µM.

Regarding `CC(C)(C)c1cc(-c2csc(Nc3ccccc3)[n+]2Cc2ccc(C(=O)O)cc2)cc(C(C)(C)C)c1O`, the concentration for half-maximal inhibition (IC50) came out at 1.32 µM.

Consider `N=C1CCC(=N)c2c1c(O)c1ccccc1c2O`, for which the IC50 is greater than 54 µM.

`COc1ccc2nc(Nc3sc4c(c3C(N)=O)CCCC4)sc2c1` displayed an IC50 of less than 0.4 µM.

`Oc1ccc(-c2csc(Nc3ncccn3)n2)cc1O` had a half-inhibitory concentration (IC50) of less than 0.4 µM.

Consider `CCOC(=O)c1c(C)oc2c1c(CN1CCN(C(=O)OCC)CC1)c(O)c1ccccc12`, for which the concentration for half-maximal inhibition (IC50) was less than 0.4 µM.

Turning to `CCCSC1=N/C(=C\C=C\c2ccco2)C(=O)S1`, the IC50 was 3.1 µM.

`O=C(CSc1nnc(COc2ccccc2Cl)o1)NC(=O)NCc1ccco1` yielded a 50% inhibitory concentration (IC50) of 8.6 µM.

Take `COc1ccccc1N1C(=O)C2ON(c3ccccc3)C(c3ccc(N(C)C)cc3)C2C1=O` (stereo not drawn): the IC50 is greater than 54 µM.

`Cc1cccc(NC(=O)CN2C(=O)N/C(=C/c3ccc(C)o3)C2=O)c1` gave a concentration for half-maximal inhibition (IC50) greater than 54 µM.

In turn, `O=C(NN1C(=O)/C(=C/C=C/c2ccco2)SC1=S)c1ccccc1O` returned an IC50 of 1.01 µM.

As to `O=C1NC(=S)S/C1=C\C=C\c1ccc([N+](=O)[O-])o1`, the IC50 was less than 0.4 µM.

Regarding `Brc1ccc(C2Nc3cccc4cccc(c34)N2)s1`, the IC50 is less than 0.4 µM.

For `O=C1/C(=C\c2ccc(O)cc2)SC(=S)N1/N=C/c1ccc(O)cc1`, the IC50 stood at 2.99 µM.

Consider `Cc1cc(NS(=O)(=O)c2ccc(Nc3nc(-c4sc(NC(=O)c5ccccc5)nc4C)cs3)cc2)no1`, for which the IC50 is 1.77 µM.

`O=C1N/C(=N/Nc2ccccc2)S/C1=C\c1ccccc1` registered a 50% inhibitory concentration (IC50) greater than 54 µM.

In turn, `COc1ccc(-c2csc(Nc3ccccc3)n2)cc1` came in with a half-maximal inhibitory concentration (IC50) greater than 54 µM.

`O=C(CN1CCN(c2ccc(O)cc2)CC1)Nc1cc([N+](=O)[O-])ccc1Cl` yielded an IC50 of 6.48 µM.

Turning to `Cc1cc(C(=O)OCC(=O)Nc2sc3c(c2C#N)CCC(C)C3)c2ccccc2n1` (stereo not drawn), the IC50 turned out to be 4.27 µM.

Compound `Cc1ccc(N2CC(C(=O)Nc3ccc(N(C)C)cc3)CC2=O)cc1C` (stereo not drawn) came in with an IC50 greater than 54 µM.

Compound `Cn1c(=O)c(C(=O)COC(=O)c2cc(-c3ccco3)nc3ccccc23)c(N)n(Cc2ccccc2)c1=O` yielded an IC50 of less than 0.4 µM.

Regarding `O=C(ONc1ccc(N=NC(=O)c2ccccc2O)cc1)c1ccccc1`, the half-maximal inhibitory concentration (IC50) amounted to 13 µM.

For `O=[N+]([O-])c1cc(CN2CCOCC2)c2cccnc2c1O`, the IC50 is less than 0.4 µM.

Consider `Cc1cc(/C=C2/C(=O)NN(c3ccccc3)C2=O)c(C)n1-c1cccc(O)c1`, for which the half-maximal inhibitory concentration (IC50) stood at 3.25 µM.

In turn, `CC1CCN(c2ccc(NC(=O)Cc3ccccc3)cc2)CC1` displayed an IC50 greater than 54 µM.

As for `O=C1NC(=S)NC(=O)C1=Cc1cccn1-c1ccc(O)cc1`, the IC50 was 3.36 µM.

`O=c1ccc2[n+]([O-])c3ccc(O)cc3oc-2c1` showed a 50% inhibitory concentration (IC50) greater than 54 µM.

`O=C(CSc1nc2ccccc2s1)Nc1cc(S(=O)(=O)N2CCOCC2)ccc1O` gave an IC50 of 0.722 µM.

As to `COc1ccc(-c2nn(CCC(=O)O)cc2/C=C2\SC(N)=NC2=O)cc1OC`, the half-maximal inhibitory concentration (IC50) was 4.36 µM.

Consider `CCN1C(=O)/C(=C/c2ccc3c(c2)CCN3CCCCl)C(=O)NC1=S`, for which the IC50 stood at 2.57 µM.

`CN(C)S(=O)(=O)c1cccc(-c2nn(-c3ccccc3)cc2/C=C2\SC(=S)N(CC(=O)O)C2=O)c1`: the concentration for half-maximal inhibition (IC50) came to 4.28 µM.

The compound `Cc1ccc(N=Nc2c(N)[nH]n3c(=O)cc(-c4ccccc4)nc23)cc1` registered an IC50 of 14 µM.

`O=c1c(-c2c(O)cc(O)c3c(=O)cc(-c4ccc(O)cc4)oc23)c(-c2ccc(O)cc2)oc2cc(O)cc(O)c12` had a 50% inhibitory concentration (IC50) greater than 54 µM.

In turn, `Cc1ccc(NC(=O)CN2C(=O)S/C(=C/c3ccc(-c4cc(C(=O)O)ccc4C)o3)C2=O)cc1C` registered a half-inhibitory concentration (IC50) of 2.85 µM.

`Cc1cccc(NC2=C(NC(=O)c3ccccc3)C(=O)c3ccccc3C2=O)c1` returned a half-inhibitory concentration (IC50) of 3.41 µM.

Regarding `CC(=O)N1C(=O)/C(=C2\SC(=S)N(NC(=O)c3ccc(O)cc3)C2=O)c2ccccc21`, the IC50 stood at 1.55 µM.

`Oc1nc(Nc2ccc(F)cc2)sc1/C=C1\C=Nc2ccccc21` yielded a half-inhibitory concentration (IC50) of 4.32 µM.

Compound `CCN(/N=C/c1ccc(N(C)C)cc1)c1nc2ccccc2[nH]1` showed a half-inhibitory concentration (IC50) of 2.06 µM.

`Cc1nc(COC(=O)c2cc(O)c3ccccc3c2O)cs1` had a half-maximal inhibitory concentration (IC50) of less than 0.4 µM.

`Clc1cccc(N/N=C/c2ccc(N3CCOCC3)s2)c1` showed a 50% inhibitory concentration (IC50) of less than 0.4 µM.

The compound `NS(=O)(=O)c1ccc(-c2ccc(/C=C3\SC(=S)N(C4CCS(=O)(=O)C4)C3=O)o2)cc1` (stereo not drawn) registered an IC50 of 2.55 µM.

`Cc1ccc(/C=C2\SC(=S)N(/N=C/c3cc([N+](=O)[O-])ccc3O)C2=O)o1` registered an IC50 of less than 0.4 µM.

`Cc1c(Cc2ccccc2)c(NCCN(C)C)n2c(nc3ccccc32)c1C#N`: the IC50 is 1.91 µM.

`CN1CCN(S(=O)(=O)c2ccc(NC(=S)NC(=O)c3ccc(Cl)cc3)cc2)CC1` returned a half-inhibitory concentration (IC50) of 3.59 µM.

Regarding `COc1cc(/C=N/NC(=O)C(Cc2c[nH]c3ccccc23)NC(=O)OCc2ccccc2)cc([N+](=O)[O-])c1O` (stereo not drawn), the half-maximal inhibitory concentration (IC50) was 4.82 µM.

In turn, `COc1ccc(-n2cccc2/C=C2\C(=N)N3N=C(c4ccco4)SC3=NC2=O)cc1` displayed an IC50 of less than 0.4 µM.

For `CNC(=O)NC1CCCc2ccccc21` (stereo not drawn), the IC50 is greater than 54 µM.

As to `CN(C)c1ccc(NC(=O)c2ccc(COc3cccc(Cl)c3)o2)cc1`, the IC50 is less than 0.4 µM.

Turning to `CN1C(=O)/C(=C/c2ccc(-c3ccccc3[N+](=O)[O-])o2)SC1=Nc1ccc(Cl)c(C(=O)O)c1`, the IC50 is less than 0.4 µM.

Compound `CCN(CC)C(=O)COC(=O)c1cc(-c2ccco2)nc2ccccc12` registered a half-maximal inhibitory concentration (IC50) of less than 0.4 µM.

For `O=C1N=c2ccccc2=C1c1c(O)n(-c2cccc(F)c2)[nH]c1=O`, the IC50 is less than 0.4 µM.

For `O=C(CSc1cccc[n+]1[O-])Nc1cc2c(cc1Cl)C(=O)c1ccccc1C2=O`, the concentration for half-maximal inhibition (IC50) amounted to 3.74 µM.

Turning to `COc1ccc(NC(=O)CN2C(=O)/C(=C3\SC(=S)N(C4CCS(=O)(=O)C4)C3=O)c3ccccc32)cc1` (stereo not drawn), the IC50 worked out at 2.54 µM.

The compound `CCOC(=O)c1cc(C(O)(C(=O)OC)C(F)(F)F)c(/N=C/N(C)C)o1` (stereo not drawn) yielded an IC50 greater than 54 µM.

Turning to `COC(=O)c1ccc2nc(Nc3nc4c(F)cc(F)cc4s3)sc2c1`, the IC50 is less than 0.4 µM.

The compound `O=C(Nc1ccc(Nc2ccncc2)cc1)c1ccc(Nc2ccnc3ccc([N+](=O)[O-])cc23)cc1[N+](=O)[O-]` showed an IC50 of 3.11 µM.

`CCn1cc(C(=O)NCc2ccc3c(c2)OCO3)c2cc(OC)c(OC)cc2c1=O` showed a 50% inhibitory concentration (IC50) greater than 54 µM.

For the compound `O=[N+]([O-])c1cccc(N/N=C/c2cc([N+](=O)[O-])ccc2O)c1`, the IC50 came to 0.428 µM.

As to `O=C(NCCCCc1ccccc1)C1CC(c2ccccc2[N+](=O)[O-])=NO1` (stereo not drawn), the concentration for half-maximal inhibition (IC50) was greater than 54 µM.

The compound `N=C1/C(=C\c2ccc(-c3ccc(C(=O)O)cc3)o2)C(=O)N=C2SC=C(c3ccccc3)N12` displayed a half-inhibitory concentration (IC50) of less than 0.4 µM.

Take `NC(=O)C1CCN(C2=C(Cl)C(=O)c3ccccc3C2=O)CC1`: the half-maximal inhibitory concentration (IC50) was found to be 48.2 µM.

Consider `Cc1ccc2c(c1)c1ccc3c(c1n2C)C(=O)C=CC3=O`, for which the half-maximal inhibitory concentration (IC50) was less than 0.4 µM.

`CCCCCc1nc2c(=O)[nH]c3ccccc3c2o1`: the IC50 is greater than 54 µM.

For the compound `Cc1cc(C)c(S(=O)(=O)NCc2cn3c(C)csc3n2)cc1C`, the IC50 was greater than 54 µM.

Turning to `COc1cc(/C=C2/SC(=S)NC2=O)ccc1OS(=O)(=O)c1ccc(C)cc1`, the half-inhibitory concentration (IC50) amounted to 3.26 µM.

`O=C(NCCCO)c1ccc2nc(-c3ccco3)c(-c3ccco3)nc2c1`: the half-maximal inhibitory concentration (IC50) was greater than 54 µM.

`O=C(Nc1cccc(S(=O)(=O)NC2=NCCCCC2)c1)c1cc(-c2ccco2)nc2ccccc12` displayed an IC50 of less than 0.4 µM.

As for `Cc1ccc(NC2=C(NC(=O)c3ccccc3)C(=O)c3ccccc3C2=O)cc1Cl`, the IC50 came to 3.9 µM.

The compound `CN(C)c1ccc(NC(=O)CN2C(=O)CN=C(c3ccccc3)c3cc(Cl)ccc32)cc1` registered a half-maximal inhibitory concentration (IC50) greater than 54 µM.

In turn, `O=C(O)CSc1cc(C(=O)c2cc(F)ccc2O)cn2c(=O)c3c(-c4ccccc4)csc3nc12` displayed a concentration for half-maximal inhibition (IC50) of 2.12 µM.

On to `CCNc1ccc(Br)cc(C(=O)/C=C/c2ccc(Cl)cc2)c1=O`, for which the IC50 amounted to 2.03 µM.

As to `Cc1nnc(Sc2cc(NCCO)c([N+](=O)[O-])c3nonc23)s1`, the IC50 was less than 0.4 µM.

Compound `Cc1csc(NC(=O)c2cc(-c3ccco3)nc3ccccc23)n1` gave a half-inhibitory concentration (IC50) of 2.91 µM.

Consider `O=C(Nc1ccc(N2CCCC2)cc1)c1ccc2ccccc2c1`, for which the 50% inhibitory concentration (IC50) came out at 4.97 µM.

As for `Cc1cccc(/C=C/C(=O)c2ccc(NC3=NCCCS3)cc2)c1`, the concentration for half-maximal inhibition (IC50) was found to be 4.9 µM.

For the compound `Cc1ccc(CSc2nnc(SCC(=O)N/N=C/c3c[nH]c4ccccc34)s2)cc1`, the IC50 worked out at 10.1 µM.

Regarding `CCOC(=O)c1[nH]c2c(c1C)C(=O)CC(c1ccco1)C2` (stereo not drawn), the IC50 was determined as 5.64 µM.

`CCCCc1[nH]nc2c1C1(C(=O)N(CC)c3ccccc31)C(C#N)=C(N)O2` (stereo not drawn) registered a 50% inhibitory concentration (IC50) greater than 54 µM.

Turning to `Cc1cc(C(=O)N/N=C/c2ccc(O)c([N+](=O)[O-])c2)c(C)n1-c1ccc(F)cc1`, the IC50 amounted to 2.33 µM.

`Cc1ccccc1/C=N/Nc1ccnc2cc(Cl)ccc12`: the IC50 was 6.6 µM.

The compound `O=C(O)CCN1C(=O)/C(=C\c2ccc(-c3nc4ccccc4s3)o2)SC1=S` showed a half-inhibitory concentration (IC50) of less than 0.4 µM.

On to `Cc1ccc(C(=O)Nc2ccc(N3CCCC3)cc2)cc1`, for which the IC50 is greater than 54 µM.
